The source of these data is US9109004B2, “Progesterone receptor antagonists” (Bayer Intellectual Property GmbH, priority 2010, dated 2015).

What is called IC50 is the concentration that inhibits the measured activity by half. Low values mean inhibition by little substance, high ones a need for much substance.

For assay [1], the target named is T1, human progesterone receptor A (Homo sapiens, UniProt P06401).
T1 construct: expressed in transfected cells; host or cells: SK-N-MC human neuroblastoma cells, stably transfected
T1 sequence (P06401 1-769 isoform P06401-2): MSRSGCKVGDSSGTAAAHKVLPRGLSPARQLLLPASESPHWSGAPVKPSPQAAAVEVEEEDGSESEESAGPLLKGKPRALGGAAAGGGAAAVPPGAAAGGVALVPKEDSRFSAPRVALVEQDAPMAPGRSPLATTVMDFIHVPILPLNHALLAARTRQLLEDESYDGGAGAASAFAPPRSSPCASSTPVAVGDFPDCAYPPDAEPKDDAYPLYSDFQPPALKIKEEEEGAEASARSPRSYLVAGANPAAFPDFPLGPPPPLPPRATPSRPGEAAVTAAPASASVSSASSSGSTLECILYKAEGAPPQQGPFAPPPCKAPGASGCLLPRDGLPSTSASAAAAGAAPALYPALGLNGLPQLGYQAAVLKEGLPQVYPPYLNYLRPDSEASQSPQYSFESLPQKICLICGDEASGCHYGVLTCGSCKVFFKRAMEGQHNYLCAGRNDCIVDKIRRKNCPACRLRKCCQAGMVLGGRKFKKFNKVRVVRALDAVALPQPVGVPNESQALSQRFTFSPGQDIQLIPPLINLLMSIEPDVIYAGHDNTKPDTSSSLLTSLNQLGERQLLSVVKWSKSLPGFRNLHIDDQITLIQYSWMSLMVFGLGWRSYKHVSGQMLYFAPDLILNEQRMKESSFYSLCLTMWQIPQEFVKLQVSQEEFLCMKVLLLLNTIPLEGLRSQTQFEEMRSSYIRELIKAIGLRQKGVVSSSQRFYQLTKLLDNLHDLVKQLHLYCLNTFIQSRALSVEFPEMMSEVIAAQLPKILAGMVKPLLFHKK
As to the kind of experiment: Progesterone-receptor-antagonistic action in stably transfected SK-N-MC cells, MTV-LUC reporter (PR-A). Format: cell-based. The settings on record: antagonistic potency vs 0.1 nmol/l promegestone, 24 hours, luciferase. The method, boiled down:
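SK-N-MC neuroblastoma cells stably expressing human PR-B or PR-A plus MMTV-LUC reporter, treated 24 h with 0.1 nmol/l promegestone plus test compound at 0.01 nmol/l–1 μmol/l. Luciferase in lysates read as RLU; values as % efficacy and IC50.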

Assay [2] deals with T2, human progesterone receptor B (Homo sapiens, UniProt P06401).
T2 construct: expressed in transfected cells; host or cells: SK-N-MC human neuroblastoma cells, stably transfected
T2 sequence (P06401 1-933): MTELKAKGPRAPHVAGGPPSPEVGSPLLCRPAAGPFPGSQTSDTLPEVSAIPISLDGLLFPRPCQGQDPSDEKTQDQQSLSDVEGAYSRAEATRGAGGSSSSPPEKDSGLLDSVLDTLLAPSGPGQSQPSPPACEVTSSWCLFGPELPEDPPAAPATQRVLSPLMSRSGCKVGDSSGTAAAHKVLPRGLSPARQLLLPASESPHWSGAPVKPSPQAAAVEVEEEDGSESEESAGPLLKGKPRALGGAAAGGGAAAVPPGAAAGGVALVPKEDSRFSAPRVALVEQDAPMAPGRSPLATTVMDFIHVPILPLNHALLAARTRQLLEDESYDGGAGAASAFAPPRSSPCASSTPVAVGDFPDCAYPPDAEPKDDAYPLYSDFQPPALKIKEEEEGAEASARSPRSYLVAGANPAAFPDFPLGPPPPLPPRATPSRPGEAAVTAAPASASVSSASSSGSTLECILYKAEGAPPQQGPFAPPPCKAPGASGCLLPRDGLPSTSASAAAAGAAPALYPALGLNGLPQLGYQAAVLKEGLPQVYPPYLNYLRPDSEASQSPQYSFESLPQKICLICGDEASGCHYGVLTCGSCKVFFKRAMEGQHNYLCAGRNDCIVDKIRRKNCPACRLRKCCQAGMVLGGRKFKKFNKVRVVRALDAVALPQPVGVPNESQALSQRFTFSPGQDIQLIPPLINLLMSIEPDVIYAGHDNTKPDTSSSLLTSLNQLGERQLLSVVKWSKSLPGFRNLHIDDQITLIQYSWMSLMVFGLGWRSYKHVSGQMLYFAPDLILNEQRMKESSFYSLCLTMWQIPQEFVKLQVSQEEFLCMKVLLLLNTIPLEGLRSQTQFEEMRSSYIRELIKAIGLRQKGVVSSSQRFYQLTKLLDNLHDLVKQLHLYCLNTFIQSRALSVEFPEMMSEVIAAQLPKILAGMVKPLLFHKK
Nature of the assay: Progesterone-receptor-antagonistic action in stably transfected SK-N-MC cells, MTV-LUC reporter (PR-B). Format: cell-based. The following applies: antagonistic potency vs 0.1 nmol/l promegestone, 24 hours, luciferase. As to the method:
Progesterone-Receptor-Antagonistic Action in Stable Transfectants of Human Neuroblastoma Cells (SK-N-MC Cells) with the Human Progesterone A or Progesterone B Receptor and an MTV-LUC Reporter Construct
SK-N-MC cells (human neuroblastoma cells) that have been stably transfected with plasmids that express the human progesterone receptor B (pRChPR-B-neo) or the human progesterone receptor A (pRChPR-A-neo) and a reporter construct (pMMTV-LUC), were incubated for 24 hours either in the absence (negative control) or in the presence of increasing amounts of the particular test compound (0.01 nmol/l, 0.1 nmol/l, 1 nmol/l, 10 nmol/l, 100 nmol/l and 1 μmol/l), to determine the agonistic efficacy. As positive control of reporter gene induction, the cells were treated with the synthetic gestagen promegestone (0.01 nmol/l, 0.1 nmol/l, 1 nmol/l, 10 nmol/l, 100 nmol/l and 1 μmol/l). For determination of the antagonistic activity, the cells were treated with 0.1 nmol/l promegestone and additionally with increasing amounts of the particular test compound (0.01 nmol/l, 0.1 nmol/l, 1 nmol/l, 10 nmol/l, 100 nmol/l and 1 μmol/l). The activity of the reporter gene LUC (LUC=luciferase) was determined in the cell lysates and was measured as RLU (relative light units). All measured values are given as % efficacy and as EC50 or IC50 concentrations.

`CN(C)C(=O)c1ccc([C@H]2C[C@@]3(C)[C@@H](CC[C@@]3(O)C(F)(F)C(F)(F)F)[C@@H]3CCC4=CC(=O)CCC4=C32)cc1` [Example 2, 4-[(11β,17β)-17-Hydroxy-3-oxo-17-(pentafluoroethyl)estra-4,9-dien-11-yl]-N,N-dimethylbenzamide]: the IC50 in assay [1] was 2.3 nM; in assay [2], 1.2 nM.

Turning to `CN1CCN(C(=O)c2ccc([C@H]3C[C@@]4(C)[C@@H](CC[C@@]4(O)C(F)(F)C(F)(F)F)[C@@H]4CCC5=CC(=O)CCC5=C43)cc2)CC1` [Example 3, (11β,17β)-17-hydroxy-11-{4-[(4-methylpiperazin-1-yl)carbonyl]phenyl}-17-(pentafluoroethyl)estra-4,9-dien-3-one], the IC50 in assay [1] was found to be 24 nM; in assay [2], 44 nM.

For the compound `CC(C)(C)OC(=O)N1CCN(C(=O)c2ccc([C@H]3C[C@@]4(C)[C@@H](CC[C@@]4(O)C(F)(F)C(F)(F)F)[C@@H]4CCC5=CC(=O)CCC5=C43)cc2)CC1` [Example 4, tert-butyl-4-{4-[(11β,17β)-17-hydroxy-3-oxo-17-(pentafluoroethyl)estra-4,9-dien-11-yl]benzoyl}piperazine-1-carboxylate], the IC50 turned out to be 0.62 nM in assay [1] and 1.6 nM in assay [2].

As to `C[C@]12C[C@H](c3ccc(C(=O)N4CCCCC4)cc3)C3=C4CCC(=O)C=C4CC[C@H]3[C@@H]1CC[C@@]2(O)C(F)(F)C(F)(F)F` [Example 5, (11β,17β)-17-hydroxy-17-(pentafluoroethyl)-11-[4-(piperidin-1-ylcarbonyl)phenyl]estra-4,9-dien-3-one], the IC50 amounted to 4.7 nM in assay [1] and 5 nM in assay [2].

For the compound `COC(=O)C1CCN(C(=O)c2ccc([C@H]3C[C@@]4(C)[C@@H](CC[C@@]4(O)C(F)(F)C(F)(F)F)[C@@H]4CCC5=CC(=O)CCC5=C43)cc2)CC1` [Example 6, methyl-1-{4-[(11β,17β)-17-hydroxy-3-oxo-17-(pentafluoroethyl)estra-4,9-dien-11-yl]benzoyl}piperidine-4-carboxylate], the IC50 in assay [1] was determined as 9.1 nM; in assay [2] it was 11 nM.

`CN(C)CCNC(=O)c1ccc([C@H]2C[C@@]3(C)[C@@H](CC[C@@]3(O)C(F)(F)C(F)(F)F)[C@@H]3CCC4=CC(=O)CCC4=C32)cc1` [Example 7, N-[2-(dimethylamino)ethyl]-4-[(11β,17β)-17-hydroxy-3-oxo-17-(pentafluoroethyl)estra-4,9-dien-11-yl]benzamide]: the IC50 in assay [1] came out at 54 nM; in assay [2] it was 30 nM.

`CN(C)CCCNC(=O)c1ccc([C@H]2C[C@@]3(C)[C@@H](CC[C@@]3(O)C(F)(F)C(F)(F)F)[C@@H]3CCC4=CC(=O)CCC4=C32)cc1` [Example 8, N-[3-(dimethylamino)propyl]-4-[(11β,17β)-17-hydroxy-3-oxo-17-(pentafluoroethyl)estra-4,9-dien-11-yl]benzamide]: the IC50 worked out at 47 nM in assay [1] and 33 nM in assay [2].

Turning to `CN(C)CCN(C)C(=O)c1ccc([C@H]2C[C@@]3(C)[C@@H](CC[C@@]3(O)C(F)(F)C(F)(F)F)[C@@H]3CCC4=CC(=O)CCC4=C32)cc1` [Example 9, N-[2-(dimethylamino)ethyl]-4-[(11β,17β)-17-hydroxy-3-oxo-17-(pentafluoroethyl)estra-4,9-dien-11-yl]-N-methylbenzamide], the results for the IC50 in assay [1] and in assay [2] were 23 nM and 18 nM, respectively.

Turning to `COC(=O)c1ccccc1NC(=O)c1ccc([C@H]2C[C@@]3(C)[C@@H](CC[C@@]3(O)C(F)(F)C(F)(F)F)[C@@H]3CCC4=CC(=O)CCC4=C32)cc1` [Example 10, methyl-2-({4-[(11β,17β)-17-hydroxy-3-oxo-17-(pentafluoroethyl)estra-4,9-dien-11-yl]benzoyl}amino)benzoate], the IC50 in assay [1] came out at 0.7 nM; in assay [2] it was 1 nM.

For `CN(CCc1cccnc1)C(=O)c1ccc([C@H]2C[C@@]3(C)[C@@H](CC[C@@]3(O)C(F)(F)C(F)(F)F)[C@@H]3CCC4=CC(=O)CCC4=C32)cc1` [Example 72, 4-[(11β,17β)-17-hydroxy-3-oxo-17-(pentafluoroethyl)estra-4,9-dien-11-yl]-N-methyl-N-[2-(pyridin-3-yl)ethyl]benzamide], the IC50 in assay [1] turned out to be 1.4 nM.

`C[C@]12C[C@H](c3ccc(C(=O)N4CCNCC4)cc3)C3=C4CCC(=O)C=C4CC[C@H]3[C@@H]1CC[C@@]2(O)C(F)(F)C(F)(F)F` [Example 73, (11β,17β)-17-Hydroxy-17-(pentafluoroethyl)-11-[4-(piperazin-1-ylcarbonyl)phenyl]estra-4,9-dien-3-one]: the IC50 in assay [1] was 47 nM; in assay [2] it was 120 nM.

Consider `CC(=O)N1CCN(C(=O)c2ccc([C@H]3C[C@@]4(C)[C@@H](CC[C@@]4(O)C(F)(F)C(F)(F)F)[C@@H]4CCC5=CC(=O)CCC5=C43)cc2)CC1` [Example 74, (11β,17β)-11-{4-[(4-Acetylpiperazin-1-yl)carbonyl]phenyl}-17-hydroxy-17-(pentafluoroethyl)estra-4,9-dien-3-one], for which the IC50 was 6.7 nM in assay [1] and 12 nM in assay [2].

Consider `C[C@]12C[C@H](c3ccc(C(=O)Nc4ccccc4C(=O)O)cc3)C3=C4CCC(=O)C=C4CC[C@H]3[C@@H]1CC[C@@]2(O)C(F)(F)C(F)(F)F` [Example 76, 2-({4-[(11β,17β)-17-Hydroxy-3-oxo-17-(pentafluoroethyl)estra-4,9-dien-11-yl]benzoyl}amino)benzoic acid], for which, in assay [1], the IC50 turned out to be 0.5 nM.

In turn, `C[C@]12C[C@H](c3ccc(C(=O)Nc4cccc(C(=O)O)c4)cc3)C3=C4CCC(=O)C=C4CC[C@H]3[C@@H]1CC[C@@]2(O)C(F)(F)C(F)(F)F` [Example 77, 3-({4-[(11β,17β)-17-Hydroxy-3-oxo-17-(pentafluoroethyl)estra-4,9-dien-11-yl]benzoyl}amino)benzoic acid] registered an IC50 in assay [1] of 140 nM. This IC50 lies about 280-fold higher than the previous one.

`C[C@]12C[C@H](c3ccc(C(=O)Nc4ccc(C(=O)O)cc4)cc3)C3=C4CCC(=O)C=C4CC[C@H]3[C@@H]1CC[C@@]2(O)C(F)(F)C(F)(F)F` [Example 78, 4-({4-[(11β,17β)-17-Hydroxy-3-oxo-17-(pentafluoroethyl)estra-4,9-dien-11-yl]benzoyl}amino)benzoic acid] had a half-maximal inhibitory concentration (IC50) in assay [1] of 9.6 nM. This IC50 lies about 15-fold lower than the previous one.
